Columns and labels:
Experiment in all cases: relative viability (nuclei count vs DMSO), 5 days (fraction); higher = more cells survive
[1] = compound: C1=CC2=C(C=C(C(=C2N=C1)O)N=NC3=CC4=C(C=C3)C=C(C=C4)S(=O)(=O)O)S(=O)(=O)O + CC1(C)CCC(c2ccc(Cl)cc2)=C(CN2CCN(c3ccc(C(=O)NS(=O)(=O)c4ccc(N[C@H](CCN5CCOCC5)CSc5ccccc5)c(S(=O)(=O)C(F)(F)F)c4)cc3)CC2)C1 [Navitoclax] (partner 0.5 µM)
Method in brief: (§1)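 Relative viability was taken as the ratio of nuclei in treated wells to nuclei in vehicle wells. Lung cancer cell lines in 1536-well plates received compounds by pin tool one day after seeding, either one drug alone or a fixed anchor-drug dose plus five library-drug doses (not always all listed) in √10 steps. Nuclei were counted on 4× images after 5 days of treatment, and values are medians of duplicate plates.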

[2] = compound: C1=CC2=C(C=C(C(=C2N=C1)O)N=NC3=CC4=C(C=C3)C=C(C=C4)S(=O)(=O)O)S(=O)(=O)O + CS(=O)(=O)CCNCc1ccc(-c2ccc3ncnc(Nc4ccc(OCc5cccc(F)c5)c(Cl)c4)c3c2)o1 [Lapatinib] (partner 2 µM)
Method in brief: as §1

AT-7519 + Luminespib = compound: O=C(NC1CCNCC1)c1n[nH]cc1NC(=O)c1c(Cl)cccc1Cl [AT-7519] + CCNC(=O)c1noc(-c2cc(C(C)C)c(O)cc2O)c1-c1ccc(CN2CCOCC2)cc1 [Luminespib] (partner 0.01 µM)
Method in brief: as §1

AT-7519 + Dasatinib = compound: O=C(NC1CCNCC1)c1n[nH]cc1NC(=O)c1c(Cl)cccc1Cl [AT-7519] + Cc1nc(Nc2ncc(C(=O)Nc3c(C)cccc3Cl)s2)cc(N2CCN(CCO)CC2)n1 [Dasatinib] (partner 0.075 µM)
Method in brief: as §1

Cell Line | relative viability ([1]; first compound 0.08 µM) | relative viability ([1]; first compound 0.253 µM) | relative viability ([1]; first compound 0.8 µM) | relative viability ([1]; first compound 2.53 µM) | relative viability ([1]; first compound 8 µM) | relative viability ([2]; first compound 0.08 µM) | relative viability ([2]; first compound 0.253 µM) | relative viability ([2]; first compound 0.8 µM) | relative viability ([2]; first compound 2.53 µM) | relative viability ([2]; first compound 8 µM) | relative viability (AT-7519 + Luminespib; first compound 0.01 µM) | relative viability (AT-7519 + Luminespib; first compound 0.03162 µM) | relative viability (AT-7519 + Luminespib; first compound 0.3162 µM) | relative viability (AT-7519 + Luminespib; first compound 1 µM) | relative viability (AT-7519 + Dasatinib; first compound 0.01 µM) | relative viability (AT-7519 + Dasatinib; first compound 0.03162 µM) | relative viability (AT-7519 + Dasatinib; first compound 0.3162 µM) | relative viability (AT-7519 + Dasatinib; first compound 1 µM)
NCI-H1651 | 1.04 | 0.932 | 1.14 | 1.15 | 0.991 | 0.764 | 0.865 | 0.781 | 0.911 | 0.964 | 0.882 | 0.675 | 0.614 | 0.607 | 0.396 | 0.304 | 0.406 | 0.292
NCI-H1944 | 1.13 | 0.982 | 0.992 | 1.06 | 0.991 | 0.8 | 0.753 | 0.765 | 0.753 | 0.565 | 0.846 | 0.775 | 0.677 | 0.554 | 0.205 | 0.198 | 0.215 | 0.124
SW 1573 | 1.01 | 0.971 | 1.03 | 0.964 | 0.977 | 1.05 | 1 | 1.04 | 1.14 | 0.353 | 0.223 | 0.203 | 0.149 | 0.126 | 0.762 | 0.466 | 0.255 | 0.0794
A-427 | 1.06 | 1.04 | 0.83 | 1.12 | 1.02 | 1.16 | 0.825 | 0.974 | 1.05 | 1.1 | 1.07 | 0.88 | 1.06 | 0.184 | 0.702 | 0.675 | 0.707 | 0.391
NCI-H2347 | 0.898 | 0.738 | 0.809 | 0.917 | 0.391 | 1.05 | 0.921 | 0.839 | 0.882 | 0.824 | 0.83 | 0.268 | 0.392 | 0.39 | 0.375 | 0.32 | 0.356 | 0.0926
NCI-H1355 | 1.03 | 0.944 | 0.913 | 1.03 | 0.96 | 1.02 | 0.999 | 0.905 | 1.05 | 1.08 | 0.87 | 0.621 | 0.564 | 0.578 | 0.747 | 0.633 | 0.602 | 0.784
PC-3 [JPC-3] | 0.888 | 0.748 | 0.854 | 0.722 | 0.725 | 0.483 | 0.474 | 0.484 | 0.445 | 0.426 | 0.515 | 0.558 | 0.694 | 0.623 | 0.841 | 0.99 | 0.915 | 1.04
NCI-H2228 | 1.09 | 0.801 | 0.953 | 0.577 | 0.874 | 0.966 | 1.29 | 0.986 | 1.21 | 1.06 | 0.152 | 0.174 | 0.156 | 0.165 | 0.407 | 0.464 | 0.516 | 0.352

— the supplement of paper PMC10307832
